Source: publication PMC8296622, “Crystal structure and functional characterization of an oligosaccharide dehydrogenase from Pycnoporus cinnabarinus provides insights into fungal breakdown of lignocellulose” (Biotechnology for Biofuels, 2021)

Assays:
[1] = biological target: T1, ODH (oligosaccharide dehydrogenase) (Trametes cinnabarina, UniProt A0A060SC37); experiment: X-ray crystallography; assay type: binding; details: ligand-free (sugar-free) enzyme, 1.6 Å; non-covalently bound, oxidized FAD
T1 construct: gene BN946_scf184803.g17

[2] = biological target: T1, ODH (oligosaccharide dehydrogenase); experiment: X-ray crystallography of soaked crystals (data not shown); details: bound at three external surface sugar-binding sites, not in the active site

T1 sequence (A0A060SC37 entry or part of it): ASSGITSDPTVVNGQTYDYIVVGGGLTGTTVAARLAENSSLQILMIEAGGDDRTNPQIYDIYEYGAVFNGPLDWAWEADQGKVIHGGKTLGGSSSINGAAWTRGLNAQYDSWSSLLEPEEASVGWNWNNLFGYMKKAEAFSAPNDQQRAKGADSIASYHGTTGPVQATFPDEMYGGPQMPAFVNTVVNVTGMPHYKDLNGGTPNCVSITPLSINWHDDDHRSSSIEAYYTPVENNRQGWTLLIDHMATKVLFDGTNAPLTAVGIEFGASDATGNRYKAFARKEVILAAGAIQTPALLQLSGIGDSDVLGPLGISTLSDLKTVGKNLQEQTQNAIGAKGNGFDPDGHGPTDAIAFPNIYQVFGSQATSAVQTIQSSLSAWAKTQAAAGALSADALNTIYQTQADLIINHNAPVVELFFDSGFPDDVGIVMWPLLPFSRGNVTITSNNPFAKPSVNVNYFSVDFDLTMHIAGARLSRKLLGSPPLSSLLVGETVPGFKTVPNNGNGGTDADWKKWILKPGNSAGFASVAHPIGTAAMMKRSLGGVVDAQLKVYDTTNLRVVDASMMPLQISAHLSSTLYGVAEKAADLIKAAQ

| SMILES | X-ray crystallography [1] | X-ray crystallography of soaked crystals (data not shown) [2] |
| --- | --- | --- |
| Cc1cc2nc3c(=O)[nH]c(=O)nc-3n(C[C@H](O)[C@H](O)[C@H](O)COP(=O)(O)OP(=O)(O)OC[C@H]3O[C@@H](n4cnc5c(N)ncnc54)[C@H](O)[C@@H]3O)c2cc1C [FAD] | The FAD molecule is non-covalently bound to the protein | – |
| OC[C@H]1O[C@@H](O[C@H]2[C@H](O)[C@@H](O)C(O)O[C@@H]2CO)[C@H](O)[C@@H](O)[C@@H]1O (mixture of isomers) [G4G, cellobiose] | – | the ligand was clearly bound to (and modeled at) the three SBSs (data not shown) |
